The source of these data is patent US10028999B2, “PAR-1 based therapeutic conjugates and uses thereof” (TEL HASHOMER MEDICAL RESEARCH INFRASTRUCTURE AND SERVICES …, priority 2014, dated 2018).

Data set [1] deals with C6 glioma cells. Nature of the data set: Thrombin-like activity in C6 glioma cell line. Type of data set: cell-based. To be noted: four hours after treatment.
Data set [2] relates to EAN rats (experimental autoimmune neuritis). Nature of the data set: Electrophysiological tests in EAN rats treated with thrombin inhibitors. The class given is in vivo, rat. Here is the method: (§1) Electrophysiological tests of the sciatic nerves were performed on day 32 PI (post-immunization/induction) in EAN model (FIGS. 3A-C) and 8 weeks after STZ induction (FIG. 4A-C). Rats were anesthetized with Phenobarbital (IP, 24 mg/kg). Two pairs of monopolar needle electrodes were used to stimulate the tail nerves. Stimulating cathodes were inserted to a depth of 4-5 mm at the base of the tail and 4 cm distally. An anode at each location was inserted into the skin (4-5 mm depth) 1 cm proximal to the cathode. A ground electrode was placed between the distal stimulating electrode and the active recording electrode. Electromyography (EMG) recordings of responses of the tail muscles to proximal and distal stimuli, made by a pair of ring electrodes coated with electrode jelly and placed 1 cm distally to the distal stimulating electrode, were collected. The tail skin was wiped with alcohol prior to placing the electrodes. […] Both proximal and distal latencies were measured using time intervals from the stimulus artifact to the first deflection from baseline. To calculate the motor nerve conduction velocity (MNCV), the distance between stimulating cathodes was divided by the latency difference. Amplitudes of the compound muscle action potential (CMAP) from both proximal and distal stimulations were measured from the negative to the positive peaks. The reduction of the proximal CMAP compared with that of the distal CMAP was calculated by the equation: [(distal CMAP-proximal CMAP)/distalCMAP×100] and was defined as the R ratio. Temperature differences were minimized by conducting the study as soon as the anesthesia had taken effect and by warming the tail with a heating lamp.
(§2) FIGS. 3 and 4 each include 3 graphs summarizing the results from electrophysiological tests of treated rats, as follows: distal latency (3A, 4A) referring to the time, in milliseconds, between distal stimulation to recording; conduction velocity (3B, 4B) referring to the distance over time, in meters/seconds; and amplitude (3C, 4C) referring to the size of the response as measured in millivolts.

Data set [3] deals with STZ-induced diabetic rats. Briefly: Electrophysiological tests in STZ-induced diabetic rats treated with thrombin inhibitors. Type of data set: in vivo, rat. Particulars: STZ rats. Here is the method:
as §1, §2

Data set [4] relates to blood coagulation (prothrombin time). Briefly: Prothrombin time test. Type of data set: biochemical. Particulars: for PT: without conjugate 11.5; for Potency score in PT test: most potent (1) to least potent (5).
The next data set concerns blood coagulation (aPTT). Nature of the data set: Activated partial thromboplastin time test. Particulars: for aPTT: without conjugate 30.5; for Potency score in aPTT test: most potent (1) to least potent (5). Type of data set: biochemical.
The test system of data set [5] is CNS-1 glioma cells. Briefly: Proliferation (XTT) of CNS-1 glioma cells. Type of data set: cell-based, rat. Particulars: CNS-1 cells; for inhibition of cell proliferation: XTT, 48 hours. Here is the method: (§3) Several peptide moieties (Table 1) according to the present invention were synthesized. Proliferation was measured, by means of XTT, in C6 and CNS-1 glioma cell-lines (FIGS. 8A and 8B, respectively). In C6 cells, proliferation was measured before (black bar) and after cells were treated with the PAR-1 antagonist SCH79797 at various doses ranging from 10 nM to 10 μM (grey bars; FIG. 8A).
In another set of experiments, CNS-1 glioma cell-line was treated with increased doses of TLCK (125 nM to 14 mM), for 48 hours (FIG. 9; grey bars). Proliferation was measured by means of XTT in comparison to non-treated cells (control; black bar).
Initially, CNS-1 glioma cells were treated with increased concentrations of two peptide conjugates: a short conjugate of the formula tosyl-DPR-CK (comprising 3 amino acids, 3AA) or a long conjugate of the formula tosyl-NATLDPR-CK (comprising 7 amino acids, 7AA; SEQ ID NO: 4) in concentrations of 100 pM, 1 nM and 10 nM, for 48 hours (FIG. 10). FIG. 10 provides the results of an XTT assay used for assessing cell proliferation.
The effect of the peptide conjugate alone, or in combination with PAR-1 antagonist, SCH79797, on cell proliferation was determined in comparison to untreated cells or cells treated with PAR-1 antagonist (FIG. 13).

In the next data set the test system is thrombin. Briefly: Thrombin time test. The class given is biochemical. Particulars: for TT: without conjugate 13.4; for Potency score in TT test: most potent (1) to least potent (5).
A further data set has as its system Factor Xa. Briefly: Factor Xa activity test. Type of data set: biochemical. Particulars: for Fxa: without conjugate 0.11; for Potency score in Factor Xa activity test: most potent (1) to least potent (5).
The subject of data set [6] is CNS-1 glioma cells. Here is the method:
The thrombin-like activity of CNS-1 cells was initially measured in control cells and in cells treated with (i) the short peptide conjugate (tosyl-DPR-CK, corresponding to a conjugate that includes the peptide termed 3AA) or (ii) the long conjugate (tosyl-NATLDPR-CK, corresponding to a conjugate that includes the peptide termed 7AA (SEQ ID No. 4)) at high ([…]) and low (100 nM) concentrations (FIG. 16).

For a further data set, the target named is Protein C (Homo sapiens, UniProt P04070). Nature of the data set: Protein C activity test. To be noted: for aPC: without conjugate 109; for Potency score in Protein C activity test: most potent (1) to least potent (5). The class given is biochemical.
The next data set is described as follows: in vivo. To be noted: ip, 2 micromolar, in 100 ul.
The subject of data set [7] is STZ-induced diabetic BALB/c mice. Briefly: Sciatic nerve conduction velocity in STZ diabetic neuropathy mice. Type of data set: in vivo. Particulars: daily 100 microliter of 10 nM, p=0.016, listed as T5AACK. Here is the method:
The conduction velocity of sciatic nerves derived from an animal model of diabetes (streptozotocine (STZ)-induced diabetes; FIG. 20) was measured in mice treated daily with sham (STZ), or with the active drug TLDPR (peptide 5AA; SEQ ID NO: 2) nested between N alpha-tosyl and chloromethyl ketone, namely […] (termed hereinafter T5AACK) injected in 100 microliter of 10 nM, 100 nM and 1 micromolar.
Conduction velocities in the sciatic nerves of the mice were assessed by standard electrophysiology nerve conduction methods by a blind assessor. The nerve conduction studies were carried out one month after the induction of diabetes. A group of normal mice without diabetes served as controls. All STZ treated mice developed severe diabetes.
Streptozotocyn (STZ) was dissolved in citrate buffer pH 4.5 and a single dose of STZ was administered IP (140 mg/kg) to 12 weeks BALB/c mice. […] Mice developed diabetic neuropathy developed within 4 weeks after the induction of diabetes. […]
Conduction velocities in the sciatic nerves of the mice were assessed by standard electrophysiology nerve conduction methods by a blind assessor (FIG. 19).

For data set [8], the system named is C6 glioma cells. Nature of the data set: Proliferation (XTT) of C6 glioma cells. The class given is cell-based. To be noted: 10 nM to 10 μM. Here is the method: as §3
A general note: Formazan colour is commonly taken as a measure of viable cells.

Peptide text beside a SMILES is read from it. * marks the point of attachment. Tos = Cc1ccc(S(=O)(=O)*)cc1; CH2Cl = ClC*

Sequence of Protein C (P04070 212-461 limits assumed): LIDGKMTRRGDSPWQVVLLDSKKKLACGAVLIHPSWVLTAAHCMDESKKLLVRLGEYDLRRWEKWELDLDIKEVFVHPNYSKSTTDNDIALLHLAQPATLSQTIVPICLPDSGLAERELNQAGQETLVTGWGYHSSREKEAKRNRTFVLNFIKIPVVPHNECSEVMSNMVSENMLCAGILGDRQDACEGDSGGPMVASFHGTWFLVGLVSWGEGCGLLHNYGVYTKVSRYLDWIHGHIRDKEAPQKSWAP
Sequence of Protein C (P04070 43-197 partner limits assumed): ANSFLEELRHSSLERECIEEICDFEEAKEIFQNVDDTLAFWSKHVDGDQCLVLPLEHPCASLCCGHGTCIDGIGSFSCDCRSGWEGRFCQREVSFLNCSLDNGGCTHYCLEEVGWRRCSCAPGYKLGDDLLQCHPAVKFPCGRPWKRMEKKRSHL
Protocol for in vivo: The concentrations of the peptide conjugates in the plasma of animals treated therewith was evaluated by a unique method that was based on the ability of the peptide conjugates to inhibit thrombin activity. […] The essay initiated by obtaining blood samples from animals which received the peptide conjugates (100 microliter containing 2 micromolar, i.p.). The blood samples, after being maintained in citrate buffered sample tubes, were subjected to centrifugation for plasma separation. Samples were then filtered through a membrane with a 10 kD molecular weight cutoff which excluded all blood coagulation factors (by addition of calcium to neutralize the anticoagulation effect of the citrate buffer). Coagulation factor-free plasma samples were then applied to the thrombin activity assay.
The resulting thrombin activities in each plasma sample either diluted (×10) or as is were given in arbitrary units (FIGS. 18-18D, diagonal shading and dotted bars, respectively). However, the actual concentration were deduced by comparing the activities to calibrated activities generated with known concentrations of the conjugate peptides. The calibration data included the following thrombin activities: activity in a sample of thrombin in the absence of plasma and conjugates (black bars, FIGS. 18A-18D); and activity in four samples of thrombin and known concentrations of the peptide conjugates (10 nM, 100 nM, 1 micromolar and 10 micromolar; bars 2nd to 5th from right in FIGS. 18A-18D).

Turning to `N=C(N)c1ccc(CC(NC(=O)CNS(=O)(=O)c2ccc3ccccc3c2)C(=O)N2CCCCC2)cc1` (racemic) [NAPAP, Na-(2-naphthyl-sulphonyl-glycyl)-DL-p-amidinophenylalanyl-piperidine], the thrombin-like activity entry with C6 glioma cells [1] is given as “inhibited”. Further, the conduction velocity in [2] (daily treatment for 2 weeks, TLCK 4.4 mg/kg, NAPAP 120 μM/kg, untreated EAN 23.6±1.2) stood at 36.05±3.57 m/sec; in data set [3] (daily treatment for 2 weeks, TLCK 4.4 mg/kg, NAPAP 120 μM/kg, untreated STZ 28.5±2.8), 40.1±2.7 m/sec. Moreover, the proximal amplitude in data set [2] (untreated EAN 0.76±0.33, non-significant) worked out at 0.83±0.4 millivolts; in [3] (untreated STZ 0.48±0.13, insignificant) it was 1.68±0.64 millivolts. Further, the latency came out at 1.32 ± 0.33 ms in data set [2] (untreated EAN 1.43±0.023, control 0.54±0.03) and 1.676 ± 0.132 ms in data set [3] (untreated STZ 1.93±0.139, control 1.29±0.057).
Usually IC50 stands for the point on the concentration scale where inhibition reaches its midpoint. A high value points to a need for much substance. Consider `Cc1ccc(S(=O)(=O)N[C@@H](CC(=O)O)C(=O)N2CCC[C@H]2C(=O)N[C@@H](CCCNC(=N)N)C(=O)CCl)cc1` [3AA, tosyl-DPR-CK] (Tos-Asp-Pro-Arg-CH2Cl), for which the values for the PT in [4] (10 nM), in data set [4] (1 μM) and in [4] (100 μM) were 11.5 s, 12.3 s and “FAILED”, respectively. The “Potency score in PT test” value in [4] (100 μM) turned out to be 1. For the same molecule, the results for the aPTT in the data set with blood coagulation (aPTT) (10 nM), in the data set on blood coagulation (aPTT) (1 μM) and with blood coagulation (aPTT) (100 μM) were 30 s, 38.1 s and 150 s, respectively. The “Potency score in aPTT test” value with blood coagulation (aPTT) (100 μM) is 1. For the same molecule, the “inhibition of cell proliferation” value with CNS-1 glioma cells [5] (1 nM) was “significant inhibition of cell proliferation”; with CNS-1 glioma cells [5] (10 nM) it was “higher inhibition”. Further, the “effect on coagulation, overall” value in the data set with blood coagulation is recorded as “significantly more deleterious effects on coagulation”. The TT in the data set with thrombin (10 nM) is 14.1 s; in the data set with thrombin (1 μM), more than 80 s; in the data set with thrombin (100 μM), more than 80 s. Further, the “Potency score in TT test” value in the data set on thrombin (1 μM) is listed as 1. In addition, the figures for the Fxa in the data set with Factor Xa (1 μM) and in the data set on Factor Xa (100 μM) were 0.21 and “FAILED”, respectively. In addition, the “Potency score in Factor Xa activity test” value with Factor Xa (100 μM) was determined as 1. The concentration for half-maximal inhibition (IC50) with CNS-1 glioma cells [6] is 7 pM. Also, the aPC at Protein C (1 μM) was 107; on Protein C (100 μM), “FAILED”. Also, on Protein C (100 μM), the “Potency score in Protein C activity test” value came to 1. Besides, in “in vivo”, the level at time molar was approximately 1000 nM.
For the molecule `Cc1ccc(S(=O)(=O)N[C@H](C(=O)N[C@@H](CC(C)C)C(=O)N[C@@H](CC(=O)O)C(=O)N2CCC[C@H]2C(=O)N[C@@H](CCCNC(=N)N)C(=O)CCl)[C@@H](C)O)cc1` [5AA, tosyl-TLDPR-CK] (Tos-TLDPR-CH2Cl), the PT in data set [4] (10 nM) was 12.1 s; in data set [4] (1 μM), 11.5 s; in data set [4] (100 μM), 14.5 s. Also, the “Potency score in PT test” value in data set [4] (100 μM) came out at 4. The aPTT was 30.1 s in the data set with blood coagulation (aPTT) (10 nM), 30.5 s with blood coagulation (aPTT) (1 μM) and 63.9 s in the data set with blood coagulation (aPTT) (100 μM). Moreover, the “Potency score in aPTT test” value in the data set with blood coagulation (aPTT) (100 μM) worked out at 4. Moreover, the results for the TT with thrombin (10 nM), in the data set with thrombin (1 μM) and in the data set on thrombin (100 μM) were 13.8 s, 17.8 s and more than 80 s, respectively. In addition, the “Potency score in TT test” value in the data set with thrombin (1 μM) was found to be 4. The “Potency score in Factor Xa activity test” value in the data set with Factor Xa (100 μM) is listed as 4. Also, the Fxa in the data set with Factor Xa (100 μM) came out at 0.13. Besides, the “sciatic nerve conduction velocity relative to sham treated mice” value in [7] is given as “followed a similar trend”. 700 pM corresponded to half-maximal inhibition in the data set on CNS-1 glioma cells [6] (IC50). Moreover, the figures for the aPC at Protein C (1 μM) and on Protein C (100 μM) were 109 and 20, respectively. The “Potency score in Protein C activity test” value on Protein C (100 μM) amounted to 3. This molecule gave a level at time molar in the data set “in vivo” of less than 10 nM.
As usually defined, the inhibition is the change of the read-out against control, counted positive when it falls. `CC(C)c1ccc(Cn2ccc3c4c(N)nc(NC5CC5)nc4ccc32)cc1.Cl.Cl` [SCH79797, N3-Cyclopropyl-7-[[4-(1-methylethyl)phenyl]methyl]-7H-pyrrolo[3,2-f]quinazoline-1,3-diamine dihydrochloride, reference compound]: the inhibition at 1 µM in the data set on CNS-1 glioma cells [5] (Rattus norvegicus, Glioma cell, 1 μM, alone) amounted to 25%. For the same molecule, in the data set on C6 glioma cells [8], the proliferation result is given as “inhibited proliferation in a dose-dependent manner”.
